Where a SMILES comes first, the peptide text is derived from it. Bridges are numbered along the chain shown (N, C = ends). [ ]: non-standard residue; d: D form. Lys(N3) = [N-]=[N+]=NCCCC[C@H](N)C(=O)O; R8 = C=CCCCCCC[C@@](C)(N)C(=O)O; Cba = N[C@@H](CC1CCC1)C(=O)O; S5 = C=CCCC[C@](C)(N)C(=O)O; βAla = NCCC(=O)O

A word on the Kd: it is the concentration at which binding is half-saturated. A lower Kd goes with a tighter complex.

The target in the test is T1, MDM2 (1–125) protein (Homo sapiens, UniProt Q00987).
T1 construct: made in house
T1 sequence (Q00987 1-125): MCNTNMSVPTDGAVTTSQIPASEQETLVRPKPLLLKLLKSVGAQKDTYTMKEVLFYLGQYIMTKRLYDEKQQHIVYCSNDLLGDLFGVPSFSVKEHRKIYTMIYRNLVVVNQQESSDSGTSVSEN
In words: MDM2 binding assay (fluorescence anisotropy competition). The note with it: competition vs 50 nM FAM-labeled 12/1 peptide, 250 nM MDM2; heat map of Figure 5a. How it is done: MDM2 protein generation and binding studies were performed as described.[17] […] The competing molecules were then titrated against the complex of the FAM‐labeled peptide and protein. Curve‐fitting was carried out using Prism 4.0 (GraphPad) to determine K D values. Readings were carried out with an Envision Multilabel Reader (PerkinElmer). […] All titrations were carried out in triplicate.
(In general: Polarisation of emitted light reports the rotation of a fluorescent probe.)
With `CC(=O)N[C@H](CC(C)C)C(=O)N[C@H](C(=O)N[C@@H](Cc1ccccc1)C(=O)N[C@@H](CCC(=O)O)C(=O)N[C@@H](CCC(=O)O)C(=O)N[C@@H](Cc1ccc(O)cc1)C(=O)N[C@@H](Cc1c[nH]c2ccccc12)C(=O)N[C@@H](C)C(=O)N[C@@H](CCC(N)=O)C(=O)N[C@@H](CC(C)C)C(=O)N[C@H](C(=O)N[C@@H](CO)C(N)=O)[C@@H](C)O)[C@@H](C)O` [MP-191] (Ac-[dL]TFEEYWAQLTS-NH2), the Kd was determined as 27 nM.

Compound `CC(=O)N[C@@H](CC(C)C)C(=O)N[C@H](C(=O)N[C@@H](Cc1ccccc1)C(=O)NC(C)(C)C(=O)N[C@@H](CCC(=O)O)C(=O)N[C@@H](Cc1ccc(O)cc1)C(=O)N[C@@H](Cc1c[nH]c2ccccc12)C(=O)N[C@@H](CCC(N)=O)C(=O)N[C@@H](CC(C)C)C(=O)N[C@@H](CC1CCC1)C(=O)NC(C)(C)C(=O)N[C@@H](CO)C(=O)N[C@@H](C)C(=O)N[C@@H](C)C(=O)O)[C@@H](C)O` [MP-788, Ac-Leu-Thr-Phe-Aib-Glu-Tyr-Trp-Gln-Leu-Cba-Aib-Ser-Ala-Ala-OH] came in with a Kd of 88 nM.

In turn, `CC(C)C[C@H]1NC(=O)[C@@H](CCCCN)NC(=O)[C@@H](CCC(=O)O)NC(=O)[C@@H](Cc2ccc(C(F)(F)F)cc2)NC(=O)[C@@H](CC(N)=O)NC(=O)C2(CCCC=CCCCCCC[C@](C)(C(=O)N[C@H](C)C(=O)N[C@H](C)C(=O)N[C@H](C)C(=O)N[C@H](C)C(=O)N[C@H](C)C(=O)N[C@H](C)C(N)=O)NC(=O)[C@@H](CC(C)C)NC1=O)CCCC=CCCC[C@@](C)(N)C(=O)N[C@H](C)C(=O)N[C@H](Cc1c[nH]c3cc(F)ccc13)C(=O)N[C@H](Cc1ccc(O)cc1)C(=O)N2` (stereo partly drawn) [MP-231, H-R5*-DAla-DTrp(6-F)-DTyr-B5**-DAsn-DPhe(4-CF3)-DGlu-DLys-DLeu-DLeu-R8*-DAla-DAla-DAla-DAla-DAla-DAla-NH2] showed a Kd of 0.53 nM.

In turn, `CC(=O)N[C@@H](CCCCN=[N+]=[N-])C(=O)NCCC(=O)N[C@@H](CC(C)C)C(=O)N[C@H](C(=O)N[C@@H](Cc1ccccc1)C(=O)N[C@]1(C)CCCCCCC=CCCC[C@@](C)(C(=O)N[C@@H](CCC(=O)O)C(=O)N[C@@H](C)C(=O)N[C@@H](C)C(=O)N[C@@H](C)C(=O)N[C@@H](C)C(=O)N[C@H](C)C(N)=O)NC(=O)[C@H](CC2CCC2)NC(=O)[C@H](CCC(N)=O)NC(=O)[C@H](C)NC(=O)[C@H](Cc2c[nH]c3ccccc23)NC(=O)[C@H](Cc2ccc(O)cc2)NC(=O)[C@H](CCC(=O)O)NC1=O)[C@@H](C)O` [MP-834, Ac-Lys(N3)-betaAla-Leu-Thr-Phe-R8*-Glu-Tyr-Trp-Ala-Gln-Cba-S5*-Glu-Ala-Ala-Ala-Ala-DAla-NH2] (Ac-[Lys(N3)][βAla]LTF[R8]EYWAQ[Cba][S5]EAAAA[dA]-NH2; staple 6-13) gave a Kd of 0.97 nM.

`CC(C)C[C@@H]1NC(=O)[C@H](C)NC(=O)[C@H](Cc2c[nH]c3ccccc23)NC(=O)[C@H](Cc2ccc(O)cc2)NC(=O)[C@H](CCC(=O)O)NC(=O)[C@](C)(NC(=O)[C@H](Cc2ccccc2)NC(=O)[C@H](CO)NC(=O)[C@@H](NC(=O)[C@H](CO)NC(=O)CNC(=O)[C@H](CO)NC(=O)[C@H](CCCCN=[N+]=[N-])NC(=O)[C@H](CCC(=O)O)NC(=O)[C@H](CCC(=O)O)NC(=O)[C@@H](N)CCC(=O)O)[C@@H](C)O)CCCCCCC=CCCC[C@@](C)(C(N)=O)NC(=O)[C@H](CC(C)C)NC1=O` [MP-948, NH2-Glu-Glu-Glu-Lys(N3)-Ser-Gly-Ser-Thr-Ser-Phe-R8*-Glu-Tyr-Trp-Ala-Leu-Leu-S5*-NH2] (H-EEE[Lys(N3)]SGSTSF[R8]EYWALL[S5]-NH2; staple 11-18) displayed a Kd of 0.85 nM.

With `CC(=O)N[C@@H](CC(C)C)C(=O)N[C@H](C(=O)N[C@@H](Cc1ccccc1)C(=O)N[C@@H](CCC(=O)O)C(=O)N[C@@H](CCC(=O)O)C(=O)N[C@@H](Cc1ccc(O)cc1)C(=O)N[C@@H](Cc1c[nH]c2ccccc12)C(=O)N[C@@H](C)C(=O)N[C@H](CCC(N)=O)C(=O)N[C@@H](CC(C)C)C(=O)N[C@H](C(=O)N[C@@H](CO)C(N)=O)[C@@H](C)O)[C@@H](C)O` [MP-793] (Ac-LTFEEYWA[dQ]LTS-NH2), binding was put at a Kd of 115 nM.

In turn, `CC(C)C[C@@H]1NC(=O)[C@H](C)NC(=O)[C@H](Cc2c[nH]c3ccccc23)NC(=O)[C@H](Cc2ccc(O)cc2)NC(=O)[C@H](CCC(=O)O)NC(=O)[C@](C)(NC(=O)[C@H](Cc2ccccc2)NC(=O)[C@H](CO)NC(=O)[C@@H](NC(=O)[C@H](CO)NC(=O)CNC(=O)[C@H](CO)NC(=O)[C@H](CCCCN=[N+]=[N-])NC(=O)[C@H](CCC(=O)O)NC(=O)[C@@H](N)CCC(=O)O)[C@@H](C)O)CCCCCCC=CCCC[C@@](C)(C(N)=O)NC(=O)[C@H](CC(C)C)NC1=O` [MP-181, H-Glu-Glu-Lys(N3)-Ser-Gly-Ser-Thr-Ser-Phe-R8*-Glu-Tyr-Trp-Ala-Leu-Leu-S5*-NH2] (H-EE[Lys(N3)]SGSTSF[R8]EYWALL[S5]-NH2; staple 10-17) came in with a Kd of 17 nM.

For `CC(=O)N[C@H](C(=O)N[C@@H](CO)C(=O)N[C@@](C)(Cc1ccccc1)C(=O)N[C@]1(C)CCCCCCC=CCCC[C@@](C)(C(N)=O)NC(=O)[C@H](CC(C)C)NC(=O)[C@H](CC(C)C)NC(=O)[C@H](C)NC(=O)[C@H](Cc2c[nH]c3ccccc23)NC(=O)[C@H](Cc2ccc(O)cc2)NC(=O)[C@H](CCC(=O)O)NC1=O)[C@@H](C)O` [MP-159, Ac-Thr-Ser-(ɑ-Me-Phe)-R8*-Glu-Tyr-Trp-Ala-Leu-Leu-S5*-NH2], the Kd was determined as 15 nM.

As to Ac-LTFEEYWAQLTS-NH2 [MP-190], the Kd was 17 nM.

These data come from PMC10487316, “A high‐throughput microfluidic mechanoporation platform to enable intracellular delivery of cyclic peptides in cell‐based assays” (Bioengineering & Translational Medicine, 2023).
